Experimental data: patent US5141957A, “1,4-bis-(amino-hydroxyalkylamino)-anthraquinones for inhibiting protein kinase C” (Sphinx Pharmaceuticals Corporation, priority 1990, dated 1992)
Where a name gives a salt, the structure may show the parent alone.

Legend:
[1] = molecular target: Protein kinase C (PKC); assay: Protein kinase C inhibition (histone H1 phosphorylation, 32P-ATP); format: biochemical; conditions: histone H1 substrate; enzyme from rat brain; 20 μM ATP; pH 7.5; 10 min
Description: The protein kinase C (PKC) assay is designed to duplicated the in vivo conditions required for protein kinase C function. Therefore, pH, salt and cofactor concentrations are similar to physiologic levels. Histone Hl (lysine rich) is used in the assay as the phosphorylation acceptor protein because it is readily available and serves as a good substrate for protein kinase C. The enzyme is prepared from rat brain and is purified to apparent homogeneity as determined by a single band on silver stained SDS-polyacrylamide. Studies on the mechanism of regulation of protein kinase C by phospholipids, DAG and Ca^+2 have been hampered by the physical properties of the lipid cofactors. In the screening assay, phosphatidylserine (PS) and DAG are co-sonicated to form unilamellar and multilamellar vesicles. The concentration of lipids in the assay are suboptimal to maximize the detection potential of the assay for inhibitors. Potential inhibitor compounds are added to the assay in dimethylsulfoxide at three concentrations to give final inhibitor concentrations of 4.3, 43 and 218 μM, respectively. The assay is started with the addition of enzyme and stopped after 10 min by the addition of 25 % trichloroacetic acid (TCA) and 1.0 mg/ml bovine serum albumin (BSA). […] The amount of phosphorylation is determined by the radioactivity measured in a scintillation counter. […]

[2] = system: CEM cells; assay: Human tumor cell growth inhibition (3H-thymidine incorporation), CEM; format: cell-based; conditions: CCRF-CEM, inhibition of 3H-thymidine incorporation, 18-24 hrs + 4 hrs
Description: (§1) MCF-7 a human breast tumor cell line and MCF-7/ADR an adriamycin resistant line of MCF-7 cells were obtained from the National Cancer Institute, Frederick, Md. CEM cells (ATCC accession number CCL 119) were obtained from the American Type Culture Collection, Rockville, Md. Human tumor cells are trypsinized (0.05% trypsin, GIBCO), counted with a hemacytometer and seeded at a concentration of 10,000 cells/well in a 96 well microtiter plate. After allowing cells to attach to the surface overnight, the culture medium is aspirated and replaced with 100 μl of fresh medium. Test agents are diluted to determine dose response at 2× final concentration and added in quadruplicate at 100 μl/well to bring the total volume of each well to 200 μl . The microtiter plate is then incubated at 37° C. 5% CO2 overnight (18-24 hrs) before ^3 H-thymidine is added at a concentration of 0.5 μCi/well in 50 μl culture medium. The plate is incubated again for 4 hrs under the same conditions as above. Supernatant is then aspirated and 50μl trypsin (0.05%, GIBCO) is added to each well. Cells are checked microscopically to determine detachment from surfaces, and plates are then harvested with a cell harvester (PHD, Cambridge Technology, Inc.) Filter papers corresponding to wells are placed in scintillation vials and counted to determine the amount of ^3 H-thymidine incorporated by the cells. […]

[3] = system: MCF-7 human breast tumor cell line; assay: Human tumor cell growth inhibition (3H-thymidine incorporation), MCF-7; format: cell-based; conditions: MCF7, inhibition of 3H-thymidine incorporation, 18-24 hrs + 4 hrs
Description: as §1

[4] = system: MCF-7/ADR adriamycin resistant line of MCF-7 cells; assay: Human tumor cell growth inhibition (3H-thymidine incorporation), MCF-7/ADR; format: cell-based; conditions: NCI/ADR-RES, inhibition of 3H-thymidine incorporation, 18-24 hrs + 4 hrs
Description: as §1

[5] = system: Proliferating keratinocytes (NHEK cells); assay: Human keratinocyte inhibition (3H-thymidine incorporation); format: cell-based; conditions: second passage, inhibition of 3H-thymidine incorporation
Description: as §1, with “Human” for “MCF-7 a human breast tumor cell line and MCF-7/ADR an adriamycin resistant line of MCF-7 cells were obtained from the National Cancer Institute, Frederick, Md. CEM cells (ATCC accession number CCL 119) were obtained from the American Type Culture Collection, Rockville, Md. Human”, “Supernatant is then aspirated and 50μl trypsin (0.05%, GIBCO) is added to each well.” left out
Proliferating keratinocytes (NHEK cells purchased from Clonetics, Inc., San Diego, Calif.) in second passage were grown in Keratinocyte Growth Medium (KGM) (Clonetics, Inc.) Cells are trypsinized (0.025% trypsin, Clonetics), counted with a hemacytometer (Scientific Products), and seeded at a concentration of 2,500 cells/well in a 96 well microtiter plate. […]

[6] = system: PMA-stimulated neutrophils; assay: Neutrophil superoxide anion (O2-) release assay; format: cell-based; conditions: Homo sapiens, 0.5 h, 37° C., 30 min, cytochrome c reduction at 550 nm, read-out: IC50, PMA-stimulated O2- production (respiratory burst)
Description: Neutrophils are isolated form whole blood collected from human volunteers. All reagent materials are obtained from Sigma Chemical Company with the exception of isotonic saline (Travenol Laboratories, Inc., Deerfield, Ill.) and lymphocyte separation medium (Organon Teknika, Durham, N.C.).
Whole blood is drawn and mixed with sodium heparin (final conc. 10 units/ml) to prevent clotting. An equal volume of dextran (3.0%) in isotonic saline is added, mixed, and allowed to settle for 30 min to bind red blood cells (RBC). Supernatant is removed, underlayered with lymphocyte separation medium and centrifuged for 40 min at 400 ×g in a centrifuge (Beckman GPR, Norcross, Ga.). The pellet is alternately resuspended in 0.2% and 1.6% NaCl to lyse RBCs before washing with Hank's Balanced Salt Solution (HBSS). […]
The neutrophil cell concentration is adjusted to 2×10^6 cells/ml with HBSS before adding 0.8 ml cells to 12×75 mm polypropylene test tubes (Fisher Scientific). […] Optical density (OD) of cytochrome c is read in a spectrophotometer (Shimadzu) at 550 nm. […] Reducing cytochrome c increases its absorbance, and the change in OD of cytochrome c is proportional to the amount of O2^- produced by PMA stimulation. […] Inhibition is expressed as IC50 μM and is the amount of test compound that will inhibit fifty per cent of the PMA-stimulated respiratory outburst, i.e. O2^- production.

SMILES	IC50 [1] [µM]	IC50 [2] [µM]	IC50 [3] [nM]	IC50 [4] [µM]	IC50 [5] [µM]	IC50 [6] [µM]
O=C1c2ccccc2C(=O)c2c(NCC(O)CNCc3ccccc3)ccc(NCC(O)CNCc3ccccc3)c21 (stereo not shown) [Compound 1b, 1,4-Bis-(3-Benzylamino-2-Hydroxypropylamino)-9, 10 anthracenedione. Hydrochloride salt]	43	2.7	2700	17	4	3.9
CCCNCC(O)CNc1ccc(NCC(O)CNCCC)c2c1C(=O)c1ccccc1C2=O (stereo not shown) [Compound 1a, 1,4-Bis-(3-Propylamino-2-Hydroxypropylamino)-9, 10 anthracenedione hydrochloride]	199	5.6	2400	> 25	–	–
